Patent publication US11230540B2, “Substituted triazole derivatives and uses thereof” (Bayer Pharma Aktiengesellschaft, priority 2017, dated 2022)
Counter-ions that a name gives are not always drawn.

What was measured:
human V1a receptor = molecular target: T1, human V1a receptor (Homo sapiens, UniProt P37288); test: Cellular in vitro assay for vasopressin receptor activity, V1a receptor cell line (aequorin luminescence); format: cell-based; details: for IC50: CHO cell line transfected with human V1a receptor, [Arg8]-vasopressin at EC50 concentration, read-out: IC50 hV1a; for ratio IC50 hV2/hV1a: selectivity ratio of the IC50 values hV2/hV1a
T1 construct: expressed in transfected cells; host or cells: CHO K1 (Chinese hamster ovary), also stably transfected with a modified aequorin
T1 sequence (P37288 whole entry): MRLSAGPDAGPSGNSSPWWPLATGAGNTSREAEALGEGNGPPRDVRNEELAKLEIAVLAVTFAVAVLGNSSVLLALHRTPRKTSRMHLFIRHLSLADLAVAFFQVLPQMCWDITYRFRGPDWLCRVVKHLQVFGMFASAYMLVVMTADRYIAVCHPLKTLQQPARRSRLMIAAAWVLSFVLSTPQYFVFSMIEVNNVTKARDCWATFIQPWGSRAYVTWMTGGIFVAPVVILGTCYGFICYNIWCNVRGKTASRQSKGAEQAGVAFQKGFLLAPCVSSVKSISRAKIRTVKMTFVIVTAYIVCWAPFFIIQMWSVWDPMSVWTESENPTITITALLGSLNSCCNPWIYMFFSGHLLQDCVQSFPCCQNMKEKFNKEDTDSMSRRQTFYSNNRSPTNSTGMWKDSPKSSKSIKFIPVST
Method: (§1) B-1. Cellular In Vitro Assay for Determining Vasopressin Receptor Activity
(§2) The identification of agonists and antagonists of the V1a and V2 vasopressin receptors from humans, rats and dogs as well as the quantification of the activity of the compounds of the invention is carried out using recombinant cell lines. These cell lines originally derive from a hamster's ovary epithelial cell (Chinese Hamster Ovary, CHO K1, ATCC: American Type Culture Collection, Manassas, Va. 20108, USA). The test cell lines constitutively express the human, rat or dog V1a or V2 receptors. In case of the […] V1a receptors, cells are also stably transfected with a modified form of the calcium-sensitive photoproteins aequorin (human and rat V1a) or obelin (dog V1a), which, after reconstitution with the cofactor coelenterazine, emit light when there are increases in free calcium concentrations [Rizzuto R, Simpson A W, Brini M, Pozzan T, Nature 358, 325-327 (1992); Illarionov B A, Bondar V S, Illarionova V A, Vysotski E S, Gene 153 (2), 273-274 (1995)]. The resulting vasopressin receptor cells react to stimulation of the recombinantly expressed V1a receptors by intracellular release of calcium ions, which can be quantified by the resulting photoprotein luminescence. The Gs-coupled V2 receptors are stably transfected into cell lines expressing the gene for firefly luciferase under control of a CRE-responsible promoter. Activation of V2 receptors induces the activation of the CRE-responsive promoter via cAMP increase, thereby inducing the expression of firefly luciferase. The light emitted by photoproteins of V1a cell lines as well as the light emitted by firefly luciferase of V2 cell lines corresponds to the activation or inhibition of the respective vasopressin receptor. The bioluminescence of the cell lines is detected using a suitable luminometer [Milligan G, Marshall F, Rees S, Trends in Pharmacological Sciences 17, 235-237 (1996)].
Vasopressin V1a Receptor Cell Lines:
On the day before the assay, the cells are plated out in culture medium (DMEM/F12, 2% FCS, 2 mM glutamine, 10 mM HEPES, 5 μg/ml coelenterazine) in 384-well microtiter plates and kept in a cell incubator (96% humidity, 5% v/v CO2, 37° C.). On the day of the assay, test compounds in various concentrations are placed for 10 minutes in the wells of the microtiter plate before the agonist [Arg^8]-vasopressin at EC50 concentration is added. The resulting light signal is measured immediately in a luminometer.
(§3) Table 1A below lists individual IC50 values for the compounds of the invention (including racemic mixtures as well as separated enantiomers) that were obtained from cell lines transfected with the human V1a or V2 receptor: […]

human V2 receptor = molecular target: T2, human V2 receptor (Homo sapiens, UniProt P30518); test: Cellular in vitro assay for vasopressin receptor activity, V2 receptor cell line (CRE-luciferase); format: cell-based; details: CHO cell line transfected with human V2 receptor; [Arg8]-vasopressin at EC50 concentration; read-out: IC50 hV2
T2 construct: expressed in transfected cells; host or cells: CHO K1 (Chinese hamster ovary) expressing firefly luciferase under a CRE-responsive promoter
T2 sequence (P30518 whole entry): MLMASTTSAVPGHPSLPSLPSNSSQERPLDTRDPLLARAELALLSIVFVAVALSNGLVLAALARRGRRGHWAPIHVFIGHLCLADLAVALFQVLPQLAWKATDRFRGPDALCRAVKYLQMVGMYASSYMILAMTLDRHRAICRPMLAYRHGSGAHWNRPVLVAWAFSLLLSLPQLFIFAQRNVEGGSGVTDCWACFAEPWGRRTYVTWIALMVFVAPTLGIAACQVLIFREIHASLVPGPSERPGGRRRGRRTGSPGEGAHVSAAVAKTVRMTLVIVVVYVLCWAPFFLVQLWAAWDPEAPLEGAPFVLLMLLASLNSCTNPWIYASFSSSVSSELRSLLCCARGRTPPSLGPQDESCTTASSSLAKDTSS
Method: as §1, §2
Vasopressin V2 Receptor Cell Lines:
On the day before the assay, the cells are plated out in culture medium (DMEM/F12, 2% FCS, 2 mM glutamine, 10 mM HEPES) in 384-well microtiter plates and kept in a cell incubator (96% humidity, 5% v/v CO2, 37° C.). On the day of the assay, test compounds in various concentrations and the agonist [Arg^8]-vasopressin at EC50 concentration are added together to the wells, and plates are incubated for 3 hours in a cell incubator. Upon addition of the cell lysis reagent Triton™ and the substrate luciferin, luminescence of firefly luciferase is measured in a luminometer.
as §3

`O=CN1CCC(NC(=O)c2nc(Cn3nc(-c4ccc(Cl)cc4)n(C[C@H](O)C(F)(F)F)c3=O)nn2-c2cnccc2Cl)C1` (mixture of isomers) [Example 13, 3-({3-(4-Chlorophenyl)-5-oxo-4-[(2S)-3,3,3-trifluoro-2-hydroxypropyl]-4,5-dihydro-1H-1,2,4-triazol-1-yl}methyl)-1-(4-chloropyridin-3-yl)-N-[1-formylpyrrolidin-3-yl]-1H-1,2,4-triazole-5-carboxamide] was tested, and the IC50 (human V1a receptor) was 1.5 nM, the “ratio IC50 hV2/hV1a” value (human V1a receptor) was 190.0 and the IC50 (human V2 receptor) was 285 nM.

`O=CN1CCC(NC(=O)c2nc(Cn3nc(-c4ccc(Cl)cc4)n(C[C@H](O)C(F)(F)F)c3=O)nn2-c2cccnc2Cl)C1` (mixture of isomers) [Example 14, 3-({3-(4-Chlorophenyl)-5-oxo-4-[(2S)-3,3,3-trifluoro-2-hydroxypropyl]-4,5-dihydro-1H-1,2,4-triazol-1-yl}methyl)-1-(2-chloropyridin-3-yl)-N-[1-formylpyrrolidin-3-yl]-1H-1,2,4-triazole-5-carboxamide] was tested, and the IC50 (human V1a receptor) was 108 nM, the “ratio IC50 hV2/hV1a” value (human V1a receptor) was 2.9 and the IC50 (human V2 receptor) was 315 nM.

In the case of `CC1(O)CCN(C(=O)c2nc(Cn3nc(-c4ccc(Cl)cc4)n(C[C@H](O)C(F)(F)F)c3=O)nn2CCC(F)(F)F)C1` (mixture of isomers) [Example 22, 5-(4-Chlorophenyl)-2-{[5-{[3-hydroxy-3-methylpyrrolidin-1-yl]carbonyl}-1-(3,3,3-trifluoropropyl)-1H-1,2,4-triazol-3-yl]methyl}-4-[(2S)-3,3,3-trifluoro-2-hydroxypropyl]-2,4-dihydro-3H-1,2,4-triazol-3-one], the IC50 (human V1a receptor) is reported as 290 nM, the “ratio IC50 hV2/hV1a” value (human V1a receptor) is reported as 1.5 and the IC50 (human V2 receptor) is reported as 435 nM.

In the case of `O=C(c1nc(Cn2nc(-c3ccc(Cl)cc3)n(C[C@H](O)C(F)(F)F)c2=O)nn1CCC(F)(F)F)N1CCNC(C(F)(F)F)C1` (mixture of isomers) [Example 25, 5-(4-Chlorophenyl)-4-[(2S)-3,3,3-trifluoro-2-hydroxypropyl]-2-{[5-{[3-(trifluoromethyl)piperazin-1-yl]carbonyl}-1-(3,3,3-trifluoropropyl)-1H-1,2,4-triazol-3-yl]methyl}-2,4-dihydro-3H-1,2,4-triazol-3-one], the IC50 (human V1a receptor) is reported as 35 nM, the “ratio IC50 hV2/hV1a” value (human V1a receptor) is reported as 4.9 and the IC50 (human V2 receptor) is reported as 170 nM.

In the case of `NC(CNC(=O)c1nc(Cn2nc(-c3ccc(Cl)cc3)n(C[C@H](O)C(F)(F)F)c2=O)nn1-c1ncccc1C(F)(F)F)C(F)(F)F` (mixture of isomers) [Example 51, N-(2-Amino-3,3,3-trifluoropropyl)-3-({3-(4-chlorophenyl)-5-oxo-4-[(2S)-3,3,3-trifluoro-2-hydroxypropyl]-4,5-dihydro-1H-1,2,4-triazol-1-yl}methyl)-1-[3-(trifluoromethyl)pyridin-2-yl]-1H1,2,4-triazole-5-carboxamide hydrochloride], the IC50 (human V1a receptor) is reported as 135 nM, the “ratio IC50 hV2/hV1a” value (human V1a receptor) is reported as 8.8 and the IC50 (human V2 receptor) is reported as 1190 nM.

For `CC1(O)CCN(C(=O)c2nc(Cn3nc(-c4ccc(Cl)cc4)n(C[C@H](O)C(F)(F)F)c3=O)nn2CCC(F)(F)F)C1` (single isomer, unassigned) [Example 23], the IC50 (human V1a receptor) was 285 nM, the “ratio IC50 hV2/hV1a” value (human V1a receptor) was 0.9 and the IC50 (human V2 receptor) was 245 nM.

In the case of `CC1(O)CCN(C(=O)c2nc(Cn3nc(-c4ccc(Cl)cc4)n(C[C@H](O)C(F)(F)F)c3=O)nn2CCC(F)(F)F)C1` (single isomer, unassigned) [Example 24], the IC50 (human V1a receptor) is reported as 185 nM, the “ratio IC50 hV2/hV1a” value (human V1a receptor) is reported as 1.6 and the IC50 (human V2 receptor) is reported as 300 nM.

With `CC(C)(O)CNC(=O)c1nc(Cn2nc(-c3ccc(Cl)cc3)n(C[C@H](O)C(F)(F)F)c2=O)nn1-c1ncccc1OC(F)(F)F` [Example 1, 3-({3-(4-Chlorophenyl)-5-oxo-4-[(2S)-3,3,3-trifluoro-2-hydroxypropyl]-4,5-dihydro-1H-1,2,4-triazol-1-yl}methyl)-N-(2-hydroxy-2-methylpropyl)-1-[3-(trifluoromethoxy)pyridin-2-yl]-1H1,2,4-triazole-5-carboxamide] the IC50 (human V1a receptor) was 0.66 nM, the “ratio IC50 hV2/hV1a” value (human V1a receptor) was 124.2 and the IC50 (human V2 receptor) was 82 nM.

For `CC(C)(O)CNC(=O)c1nc(Cn2nc(-c3ccc(Cl)cc3)n(C[C@H](O)C(F)(F)F)c2=O)nn1-c1cnccc1Cl` [Example 2, 3-({3-(4-Chlorophenyl)-5-oxo-4-[(2S)-3,3,3-trifluoro-2-hydroxypropyl]-4,5-dihydro-1H-1,2,4-triazol-1-yl}methyl)-1-(4-chloropyridin-3-yl)-N-(2-hydroxy-2-methylpropyl)-1H-1,2,4-triazole-5-carboxamide], the IC50 (human V1a receptor) was 0.45 nM, the “ratio IC50 hV2/hV1a” value (human V1a receptor) was 51.7 and the IC50 (human V2 receptor) was 23 nM.

In the case of `CC(C)(N)CNC(=O)c1nc(Cn2nc(-c3ccc(Cl)cc3)n(C[C@H](O)C(F)(F)F)c2=O)nn1-c1ncccc1OC(F)(F)F` [Example 3, N-(2-Amino-2-methylpropyl)-3-({3-(4-chlorophenyl)-5-oxo-4-[(2S)-3,3,3-trifluoro-2-hydroxypropyl]-4,5-dihydro-1H-1,2,4-triazol-1-yl}methyl)-1-[3-(trifluoromethoxy)pyridin-2-yl]-1H-1,2,4-triazole-5-carboxamide], the IC50 (human V1a receptor) is reported as 0.83 nM, the “ratio IC50 hV2/hV1a” value (human V1a receptor) is reported as 569.7 and the IC50 (human V2 receptor) is reported as 470 nM.

For `CC(C)(N)CNC(=O)c1nc(Cn2nc(-c3ccc(Cl)cc3)n(C[C@H](O)C(F)(F)F)c2=O)nn1-c1cnccc1Cl` [Example 4, N-(2-Amino-2-methylpropyl)-3-({3-(4-chlorophenyl)-5-oxo-4-[(2S)-3,3,3-trifluoro-2-hydroxypropyl]-4,5-dihydro-1H-1,2,4-triazol-1-yl}methyl)-1-(4-chloropyridin-3-yl)-1H-1,2,4-triazole-5-carboxamide], the IC50 (human V1a receptor) was 0.49 nM, the “ratio IC50 hV2/hV1a” value (human V1a receptor) was 845.4 and the IC50 (human V2 receptor) was 410 nM.

With `CC1(O)CCN(C(=O)c2nc(Cn3nc(-c4ccc(Cl)cc4)n(C[C@H](O)C(F)(F)F)c3=O)nn2-c2ncccc2OC(F)(F)F)C1` (stereo partly drawn) [Example 5, 5-(4-Chlorophenyl)-2-[(5-[{3-hydroxy-3-methylpyrrolidin-1-yl]carbonyl}-1-[3-(trifluoromethoxy)pyridin-2-yl]-1H-1,2,4-triazol-3-yl)methyl]-4[(2S)-3,3,3-trifluoro-2-hydroxypropyl]-2,4-dihydro-3H-1,2,4-triazol-3-one] the IC50 (human V1a receptor) was 10.3 nM, the “ratio IC50 hV2/hV1a” value (human V1a receptor) was 108.7 and the IC50 (human V2 receptor) was 1130 nM.

`CC1(O)CCN(C(=O)c2nc(Cn3nc(-c4ccc(Cl)cc4)n(C[C@H](O)C(F)(F)F)c3=O)nn2-c2cnccc2Cl)C1` (stereo partly drawn) [Example 6] was tested, and the IC50 (human V1a receptor) was 2.45 nM, the “ratio IC50 hV2/hV1a” value (human V1a receptor) was 146.9 and the IC50 (human V2 receptor) was 360 nM.

`CC1(CNC(=O)c2nc(Cn3nc(-c4ccc(Cl)cc4)n(C[C@H](O)C(F)(F)F)c3=O)nn2-c2ncccc2OC(F)(F)F)COC1` [Example 7, 3-({3-(4-Chlorophenyl)-5-oxo-4-[(2S)-3,3,3-trifluoro-2-hydroxypropyl]-4,5-dihydro-1H-1,2,4-triazol-1-yl}methyl)-N-[(3-methyloxetan-3-yl)methyl]-1-[3-(trifluoromethoxy)pyridin-2-yl]-1H1,2,4-triazole-5-carboxamide] was tested, and the IC50 (human V1a receptor) was 2.55 nM, the “ratio IC50 hV2/hV1a” value (human V1a receptor) was 131.4 and the IC50 (human V2 receptor) was 335 nM.

`CC1(CNC(=O)c2nc(Cn3nc(-c4ccc(Cl)cc4)n(C[C@H](O)C(F)(F)F)c3=O)nn2-c2cnccc2Cl)COC1` [Example 8, 3-({3-(4-Chlorophenyl)-5-oxo-4-[(2S)-3,3,3-trifluoro-2-hydroxypropyl]-4,5-dihydro-1H-1,2,4-triazol-1-yl}methyl)-1-(4-chloropyridin-3-yl)-N-[(3-methyloxetan-3-yl)methyl]-1H-1,2,4-triazole-5-carboxamide] was tested, and the IC50 (human V1a receptor) was 0.68 nM, the “ratio IC50 hV2/hV1a” value (human V1a receptor) was 144.9 and the IC50 (human V2 receptor) was 98.5 nM.
